{
  "source": "patent US4127525A",
  "about": "“Novel tridecapeptides, intermediates therefor, and compositions and methods employing said tridecapeptides” (priority 1977, dated 1978)",
  "origin": "cited, not measured here",
  "key": {"[1]": {"test_system": "partially purified brain opiate receptor sites", "settings": "natural peptide"}, "rat": {"test_system": "rat", "settings": "injected directly into the brain of the rat"}},
  "data": [
    {"substance": "H-Tyr-Gly-Gly-Phe-Met-OH [methionine enkephalin]", "values": [
      {"measurement": "binding to partially purified brain opiate receptor sites", "setting": "[1]", "value": "binds stereo-specifically"},
      {"measurement": "analgesic activity", "setting": "rat", "value": "only weak analgesic agent of short duration"}
    ]}
  ]
}
